From PubChem BioAssay (NCI)
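Values below derive from 48-hour exposures of cells grown in 96-well plates, with endpoints linearly interpolated between the two concentrations bracketing the appropriate inhibition level. TGI is the concentration that stops growth completely.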

Legend:
Experiment in all cases: inhibition of tumour cell growth, NCI panel, 48 h
OVCAR-4 ovarian = tested on: OVCAR-4 ovarian
M19-MEL melanoma = tested on: M19-MEL melanoma
MDA-MB-435 = tested on: MDA-MB-435
DMS 114 small cell lung = tested on: DMS 114 small cell lung
DU-145 prostate = tested on: DU-145 prostate
XF 498 CNS = tested on: XF 498 CNS
IGROV1 ovarian = tested on: IGROV1 ovarian
ACHN renal = tested on: ACHN renal
A498 renal = tested on: A498 renal
LOX IMVI melanoma = tested on: LOX IMVI melanoma
HOP-18 NSCLC = tested on: HOP-18 NSCLC
LXFL 529 NSCLC = tested on: LXFL 529 NSCLC
DLD-1 colon = tested on: DLD-1 colon
MCF7 breast = tested on: MCF7 breast
DMS 273 small cell lung = tested on: DMS 273 small cell lung
SNB-78 CNS = tested on: SNB-78 CNS
KM20L2 colon = tested on: KM20L2 colon
UACC-257 melanoma = tested on: UACC-257 melanoma
SK-MEL-28 melanoma = tested on: SK-MEL-28 melanoma

SMILES	TGI (OVCAR-4 ovarian)	TGI (M19-MEL melanoma)	TGI (MDA-MB-435)	TGI (DMS 114 small cell lung)	TGI (DU-145 prostate)	TGI (XF 498 CNS)	TGI (IGROV1 ovarian)	TGI (ACHN renal)	TGI (A498 renal)	TGI (LOX IMVI melanoma)	TGI (HOP-18 NSCLC)	TGI (LXFL 529 NSCLC)	TGI (DLD-1 colon)	TGI (MCF7 breast)	TGI (DMS 273 small cell lung)	TGI (SNB-78 CNS)	TGI (KM20L2 colon)	TGI (UACC-257 melanoma)	TGI (SK-MEL-28 melanoma)
COc1ccc(OC)c2c1C(=O)C(Cl)=C(Cl)C2=O	13 µM	16.2 µM	5.88 µM	4.76 µM	37.6 µM	3.67 µM	31.1 µM	10.9 µM	41.6 µM	5.18 µM	12.4 µM	4.74 µM	11.8 µM	10.4 µM	20.1 µM	15.8 µM	22.3 µM	4.68 µM	12.8 µM
CCCC/C=C1\CCC(CN2CCOCC2)C1=O (stereo not drawn)	36.1 µM	15.2 µM	23 µM	15.8 µM	32.8 µM	3.15 µM	29.2 µM	8.23 µM	27.4 µM	3.14 µM	2.05 µM	2.74 µM	3.13 µM	4.93 µM	17.6 µM	32.3 µM	11.4 µM	13.5 µM	7.97 µM
